Experimental data as given in publication PMC8243516, “Inhibition of lysosomal phospholipase A2 predicts drug-induced phospholipidosis” (Journal of Lipid Research, 2021).
Structures can show the parent of a compound that is named as a salt.

How the values were obtained:
[1] = biological target: T1, recombinant mouse LPLA2 (PLA2G15) (Mus musculus, UniProt Q8VEB4); assay: Transacylase activity of LPLA2 (1-O-acyl-N-acetylsphingosine synthase, cell-free liposome assay); format: biochemical; conditions: for IC50: 1-O-acyl N-acetylsphingosine synthase activity, pH 4.5, DOPC/sulfatide liposomes, read-out: LPLA2 IC50
T1 construct: purchased Proteos Inc. (Kalamazoo, MI)
T1 sequence (Q8VEB4 34-412): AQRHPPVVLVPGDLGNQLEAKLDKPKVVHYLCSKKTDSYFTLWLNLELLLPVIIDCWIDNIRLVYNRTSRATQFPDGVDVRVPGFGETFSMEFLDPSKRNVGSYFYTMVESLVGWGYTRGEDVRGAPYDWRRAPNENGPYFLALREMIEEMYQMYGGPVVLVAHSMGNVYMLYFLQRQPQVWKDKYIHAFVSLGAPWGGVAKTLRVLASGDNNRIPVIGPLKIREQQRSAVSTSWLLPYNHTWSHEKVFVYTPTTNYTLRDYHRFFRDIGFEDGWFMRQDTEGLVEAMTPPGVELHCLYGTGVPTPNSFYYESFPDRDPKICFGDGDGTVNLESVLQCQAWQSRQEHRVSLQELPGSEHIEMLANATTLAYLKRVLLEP

LPLA2 = biological target: T2, LPLA2 (Mus musculus, UniProt Q8VEB4); assay: LPLA2 thermal stability measurement (SYPRO Orange Tm); format: binding; conditions: N=3 ± SD
T2 construct: purchased Proteos Inc. (Kalamazoo, MI)
T2 sequence (Q8VEB4 34-412): T1 sequence (Q8VEB4 34-412)

[2] = ref Pubchem and chEMBL databases; cited from earlier work
phospholipidosis = phospholipidosis reported in vitro; Refs of Table 1; cited from earlier work

Structure (SMILES)	IC50 [1] [µM]	(ΔTm)c-(ΔTm)d, difference in melting temperature of LPLA2 alone or in the presence of drug (LPLA2) [°C]	pKa (basic) [2]	In Vitro PLD (phospholipidosis)	LPLA2 inhibition (in words) ([1]; acyl transferase activity)
C=CCc1ccccc1OCC(O)CNC(C)C (stereo not drawn) [Alprenolol, 1-(o-allylphenoxy)-3-(isopropylamino)-2-propanol]	173	-1.00 ± 0.1	9.67	Yes	
CCN(CCCc1ccccc1)CCCc1ccccc1 [Alverine, ethyl bis (3-phenylpropyl)amine]	40	0.14 ± 0.1	10.44	Yes	
CCC(C)(C)c1ccc(CC(C)CN2C[C@@H](C)O[C@@H](C)C2)cc1 (stereo partly drawn) [Amorolfine, 2R,6S-2,6-dimethyl-4-(2-{[4-(2-methylbutan-2-yl)phenyl]methyl}propyl)morpholine]	41.5	-0.30 ± 0.1	8.49	Yes	
CC(C)NCC(O)COc1ccc(CCOCC2CC2)cc1 (stereo not drawn) [Betaxolol, 1-{4-[2-(cyclopropylmethoxy)ethyl]phenoxy}-3-[(propan-2-yl)amino]propan-2-ol]		-1.29 ± 0.9	9.67	Yes	no inhibitory activity
CN(Cc1cc(Br)cc(Br)c1N)C1CCCCC1.Cl [Bromhexine, 2-amino-3,5-dibromo-N-cyclohexyl-N-methylbenzylamine hydrochloride]	30.8	1.26 ± 0.2	9.32	Yes	
CC(C)C[C@H]1C(=O)N2CCC[C@H]2[C@]2(O)O[C@](NC(=O)[C@@H]3C=C4c5cccc6[nH]c(Br)c(c56)C[C@H]4N(C)C3)(C(C)C)C(=O)N12 [Bromocriptine, (4R,7R)-10-bromo-N-[(1S,2S,4R,7S)-2-hydroxy-7-(2-methylpropyl)-5,8-dioxo-4-(propan-2-yl)-3-oxa-6,9-diazatricyclo[7.3.0.0ˆ{2,6}]dodecan-4-yl]-6-methyl-6,11diazatetracyclo[7.6.1.0ˆ{2,7}.0ˆ{12,16}]hexadeca-1(16),2,9,12,14-pentaene-4-carboxamide]	125		6.71	Yes	
CN(C)CCC(c1ccc(Cl)cc1)c1ccccn1 (stereo not drawn) [Chlorpheniramine, [3-(4-chlorophenyl)-3-(pyridin-2-yl)propyl] dimethylamine]	147	0.34 ± 0.0	9.47	Yes	
CN(C)CC/C=C1/c2ccccc2Sc2ccc(Cl)cc21 [Chlorprothixene]	7.78	-2.0 ± 0.1	9.76	Yes	
Clc1ccc(C(OCCN2CCCCC2)c2ccccc2)cc1 (stereo not drawn) [Cloperastin, 1-{2-[(4-chlorophenyl) (phenyl)methoxy]ethyl} piperidine]	40.9	0	8.82	Yes	
C[C@]12C[C@H](O)[C@H]3[C@@H](CCC4=CC(=O)CC[C@@]43C)[C@@H]1CC[C@@H]2C(=O)CO [Corticosterone, (1S,2R,10S,11S,14S,15S,17S)-17-hydroxy-14-(2-hydroxyacetyl)-2,15-dimethyltetracyclo[8.7.0.0^2,^7.0^11,^15]heptadec-6-en-5-one]	163	0	-0.26	Yes	
COc1cc2nc(N3CCN(C(=O)c4ccco4)C4CCCCC43)nc(N)c2cc1OC (stereo not drawn) [Cyclazosin, 1-(4-amino-6,7-dimethoxy-2-quinazolinyl)-4-(2-furanylcarbonyl) decahydroquinoxaline]	30.8	0.18 ± 0.1	9.89	Yes	
CN(C)CCOC(=O)C(c1ccccc1)C1(O)CCCC1 (stereo not drawn) [Cyclopentolate, 2-(dimethylamino)ethyl 2-(1-hydroxycyclopentyl)-2-phenylacetate]	32.2	0.87 ± 0.6	8.42	Yes	
c1ccc2c(c1)CCc1ccccc1C2 [Dibenzosuberane, 10,11-dihydro-5H-dibenzo [a, d] cycloheptene-833-48-7]	346	-1.94 ± 0.0	10	Yes	
CCN(CC)CCOC(=O)C(c1ccccc1)C1CCCCC1 (stereo not drawn) [Drofenine, hexahydroadiphenine]	7.29	1.50 ± 0.1	9.21	Yes	
C[C@]12C=CC(=O)N[C@@H]1CC[C@@H]1[C@@H]2CC[C@]2(C)[C@@H](C(=O)Nc3cc(C(F)(F)F)ccc3C(F)(F)F)CC[C@@H]12 [Dutasteride, (1S,2R,7R,10S,11S,14S,15S)-N-[2,5-bis (trifluoromethyl)phenyl]-2,15-dimethyl-5-oxo-6-azatetracyclo[8.7.0.0^2,^7.0^11,^15]heptadec-3-ene-14-carboxamide]	1050		2.17	Yes	
CCOC(=O)c1cncn1[C@H](C)c1ccccc1 [Etomidate, ethyl 1-[(1R)-1-phenylethyl]-1H-imidazole-5-carboxylate]	1150	-0.76 ± 0.3	4.54	Yes	
O=C(COc1ccc(Cl)cc1)N1CCN(Cc2ccc3c(c2)OCO3)CC1 [Fipexide, 1-(2-[4-chlorophenoxy]acetyl)-4-(3,4-methylenedioxybenzyl)piperazine]	17.2	-0.17 ± 0.0	6.09	Yes	
O=C(O)c1ccccc1Nc1cccc(C(F)(F)F)c1 [Flufenamic acid, 2-{[3-(trifluoromethyl)phenyl]amino}benzoic acid]	178	-0.62 ± 0.3	-2.1	Yes	
CC(=O)N1CCN(c2ccc(OCC3COC(Cn4ccnc4)(c4ccc(Cl)cc4Cl)O3)cc2)CC1 (stereo not drawn) [Ketoconazole, 1-[4-(4-{[2-(2,4-dichlorophenyl)-2-(1H-imidazole-1-ylmethyl)-1,3-dioxolan-4-yl]methoxy}phenyl)piperazin-1-yl]ethan-1-one]	39	0.42 ± 0.8	6.75	Yes	
COC(=O)C1=C(C)NC(C)=C(C(=O)OC(C)(C)CN(C)CCC(c2ccccc2)c2ccccc2)C1c1cccc([N+](=O)[O-])c1 (stereo not drawn) [Lercanidipine, 3-{1-[(3,3-diphenylpropyl)(methyl)amino]-2-methylpropan-2-yl} 5-methyl 2,6-dimethyl-4-(3-nitrophenyl)-1,4-dihydropyridine-3,5-dicarboxylate]	37.2	0.21 ± 0.3	9.36	Yes	
CCN(CC)CCc1nc(-c2ccccc2)no1 [Oxolamine citrate, diethyl[2-(3-phenyl-1,2,4-oxadiazol-5-yl)ethyl]amine]	369		8.96	Yes	
O=C(Nc1cccc2c(=O)cc(-c3nnn[nH]3)oc12)c1ccc(OCCCCc2ccccc2)cc1 [Pranlukast, N-[4-oxo-2-(2H-1,2,3,4-tetrazol-5-yl)-4H-chromen-8-yl]-4-(4-phenylbutoxy)benzamide]		0	-1.7	Yes	
